Experimental data taken from US20090068646A1, “METHODS AND KITS FOR DETECTING MUTATIONS” (PROMEGA CORPORATION, priority 2004, published 2009).
Read-outs that look alike come from different tables or passages of the source.

Tests used:
Assay type in all cases: in vivo, C75BL/6 mice
mononucleotide repeats [1] = details: 50 mg/kg intraperitoneal, liver DNA
Procedure: (§1) Treatment of mice used in paraquat studies. […] mice were housed and inbred at the University of Wisconsin, with an average life span 30 months. Four groups of three mice were included in the study: 5-month old mice (young control or YC); 5-month old mice treated with paraquat; 24-month old mice (old age); and 24-month old mice treated with paraquat. Paraquat-treated animals received a single intraperitoneal injection of 50 mg/kg body weight dissolved in PBS 24 hours after their last feeding. Each mouse was sacrificed by cervical dislocation.
(§2) Tissue Preparation, DNA Extraction and Quantification. The entire liver from each mouse was dissected, washed with PBS, placed in a 1.5 ml Ependorf tube, snap frozen in liquid nitrogen, and stored at −80° C. DNA was prepared from the mouse liver tissue by using the DNA-IQ Tissue and Hair Extraction Kit (Promega Corporation, Madison, Wis.) and was quantified using the PicoGreen dsDNA Quantitative Kit (Molecular Probes, Eugene, Oreg.) following manufacturers protocols.
Detection of Mutations in Microsatellites using small pool PCR. […] The stability of four short mononucleotide repeats (mBAT-24, mBAT-26, mBat-30, mBAT-37) and three extended mononucleotide repeats (mBAT-59, mBAT-64 and mBAT-67) were evaluated.
SP-PCR was performed for mutation analysis using 1-2 copies of genomic DNA (6-12 pg). PCR cycles and conditions are the same as described above except that the annealing temperature was 58° C.
Identification of PCR Products. Separation and detection of amplified fragments was performed on an ABI PRISM® 3100 Genetic Analyzer following the manufacturer's protocol (Applied Biosystems, Foster City, Calif.). Data was analyzed with the GeneScan and Genotyper computer software packages (Applied Biosystems).
Statistical Analysis. Statistical analysis was done using the statistical Package Sigma Stat version 3, where P value was determined by using one-way ANOVA for each specific group, using Holm-Sidak method did comparisons between the groups.

mtDNA = details: old age paraquat-treated group, three mice
Procedure: as §1, §2
mtDNA Deletion Detection. Based on the mouse mtDNA sequence, four fluorescence labeled primer pairs were designed to detect both wildtype sequences and mtDNA deletions.
PCR Conditions. […]
Identification of PCR Products. […] Data was analyzed with the GeneScan and Genotyper computer software packages (Applied Biosystems).

mononucleotide repeats [2] = details: for Mutation Freq / # Mutants: 50 mg/kg intraperitoneal, liver DNA
[3] = marker mBat-24, Old w/Paraquat (24-month old mice)
[4] = marker mBat-26, Young w/Paraquat (5-month old mice)
[5] = marker mBat-30, Old w/Paraquat (24-month old mice)
[6] = marker mBat-30, Young w/Paraquat (5-month old mice)
[7] = marker mBat-59, Old w/Paraquat (24-month old mice)
[8] = marker mBat-64, Young w/Paraquat (5-month old mice)
[9] = marker mBat-67, Young w/Paraquat (5-month old mice)
[10] = marker mBat-24, Young w/Paraquat (5-month old mice)
[11] = marker mBat-26, Old w/Paraquat (24-month old mice)
[12] = marker mBat-37, Old w/Paraquat (24-month old mice)
[13] = marker mBat-37, Young w/Paraquat (5-month old mice)
[14] = marker mBat-49, Old w/Paraquat (24-month old mice)
[15] = marker mBat-51a, Old w/Paraquat (24-month old mice)
[16] = marker mBat-51b, Old w/Paraquat (24-month old mice)
[17] = marker mBat-52, Old w/Paraquat (24-month old mice)
[18] = marker mBat-59, Young w/Paraquat (5-month old mice)
[19] = marker mBat-61a, Old w/Paraquat (24-month old mice)
[20] = marker mBat-64, Old w/Paraquat (24-month old mice)
[21] = marker mBat-66, Old w/Paraquat (24-month old mice)
[22] = marker mBat-66, Young w/Paraquat (5-month old mice)
[23] = marker mBat-67, Old w/Paraquat (24-month old mice)
[24] = paraquat-treated old age group, loci mBAT-59, mBAT-64, mBAT-66 or mBAT-67 combined

C[n+]1ccc(-c2cc[n+](C)cc2)cc1 [Paraquat]
# Mutants (mononucleotide repeats [1]; [3]): 0
Mutation Freq (mononucleotide repeats [1]; [4]): 0.000
Mutation Freq (mononucleotide repeats [1]; [5]): 0.000
# Mutants (mononucleotide repeats [1]; [6]): 0
# Mutants (mononucleotide repeats [1]; [7]): 6
Mutation Freq (mononucleotide repeats [1]; [8]): 0
Mutation Freq (mononucleotide repeats [1]; [9]): 0
mice showing Δ-mtDNA4977 (mtDNA): All three
Mutation Freq (mononucleotide repeats [2]; [3]): 0.000
# Mutants (mononucleotide repeats [2]; [10]): 1
Mutation Freq (mononucleotide repeats [2]; [10]): 0.002
# Mutants (mononucleotide repeats [2]; [11]): 0
Mutation Freq (mononucleotide repeats [2]; [11]): 0.000
# Mutants (mononucleotide repeats [2]; [4]): 0
# Mutants (mononucleotide repeats [2]; [5]): 0
Mutation Freq (mononucleotide repeats [2]; [6]): 0.000
# Mutants (mononucleotide repeats [2]; [12]): 0
Mutation Freq (mononucleotide repeats [2]; [12]): 0.000
# Mutants (mononucleotide repeats [2]; [13]): 1
Mutation Freq (mononucleotide repeats [2]; [13]): 0.001
# Mutants (mononucleotide repeats [2]; [14]): 0
Mutation Freq (mononucleotide repeats [2]; [14]): 0.000
# Mutants (mononucleotide repeats [2]; [15]): 0
Mutation Freq (mononucleotide repeats [2]; [15]): 0.000
# Mutants (mononucleotide repeats [2]; [16]): 0
Mutation Freq (mononucleotide repeats [2]; [16]): 0.000
# Mutants (mononucleotide repeats [2]; [17]): 0
Mutation Freq (mononucleotide repeats [2]; [17]): 0.000
Mutation Freq (mononucleotide repeats [2]; [7]): 0.013
# Mutants (mononucleotide repeats [2]; [18]): 4
Mutation Freq (mononucleotide repeats [2]; [18]): 0
# Mutants (mononucleotide repeats [2]; [19]): 2
Mutation Freq (mononucleotide repeats [2]; [19]): 0.005
# Mutants (mononucleotide repeats [2]; [20]): 8
Mutation Freq (mononucleotide repeats [2]; [20]): 0.019
# Mutants (mononucleotide repeats [2]; [8]): 1
# Mutants (mononucleotide repeats [2]; [21]): 8
Mutation Freq (mononucleotide repeats [2]; [21]): 0.018
# Mutants (mononucleotide repeats [2]; [22]): 3
Mutation Freq (mononucleotide repeats [2]; [22]): 0
# Mutants (mononucleotide repeats [2]; [23]): 20
Mutation Freq (mononucleotide repeats [2]; [23]): 0.051
# Mutants (mononucleotide repeats [2]; [9]): 1
mutations detected in loci mBAT-24, mBAT-26, mBat-30, or mBAT-37 (mononucleotide repeats [2]; old paraquat-treated group, short mononucleotide repeats combined): no mutations out of 1608 alleles
mutant alleles / alleles assayed (mononucleotide repeats [2]; [24]): 25/1649
mutations in mononucleotide repeat alleles assayed (mononucleotide repeats [2]; [24]): over 1.8%
